From PubChem BioAssay (NCI)
Several values for one entry are separate records, joined by “and”; a condition that tells them apart may be missing. Identical values can stand only once.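 Test compounds were applied to cells in 96-well plates for 48 hours at 5 doses. GI50 = concentration required for 50% inhibition of growth. The concentration for full growth arrest is given as TGI.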

How the values were obtained:
Assay in all cases: DTP human tumour cell line panel, 48 h; in the data active = GI50 below about 0.43 µM; inactive = the rest
LXFL 529 NSCLC = test system: LXFL 529 NSCLC
HCT-116 colon = test system: HCT-116 colon
M14 melanoma = test system: M14 melanoma
SNB-19 CNS = test system: SNB-19 CNS
SF-539 CNS = test system: SF-539 CNS
DLD-1 colon = test system: DLD-1 colon
MOLT-4 leukemia = test system: MOLT-4 leukemia
M19-MEL melanoma = test system: M19-MEL melanoma
NCI-H23 lung = test system: NCI-H23 lung
SK-MEL-2 melanoma = test system: SK-MEL-2 melanoma
SF-295 CNS = test system: SF-295 CNS
A498 renal = test system: A498 renal
RPMI-8226 leukemia = test system: RPMI-8226 leukemia
HT29 colon = test system: HT29 colon
SN12C renal = test system: SN12C renal
HOP-18 NSCLC = test system: HOP-18 NSCLC
CAKI-1 renal = test system: CAKI-1 renal
SK-MEL-28 melanoma = test system: SK-MEL-28 melanoma
TK-10 renal = test system: TK-10 renal
UO-31 renal = test system: UO-31 renal
COLO 205 colon = test system: COLO 205 colon
OVCAR-3 ovarian = test system: OVCAR-3 ovarian
NCI-H226 lung = test system: NCI-H226 lung
KM12 colon = test system: KM12 colon
HCC-2998 colon = test system: HCC-2998 colon
NCI-H522 lung = test system: NCI-H522 lung
IGROV1 ovarian = test system: IGROV1 ovarian
OVCAR-8 ovarian = test system: OVCAR-8 ovarian
SNB-75 CNS = test system: SNB-75 CNS
CCRF-CEM leukemia = test system: CCRF-CEM leukemia
UACC-257 melanoma = test system: UACC-257 melanoma
HCT-15 colon = test system: HCT-15 colon
XF 498 CNS = test system: XF 498 CNS
HL-60(TB) leukemia = test system: HL-60(TB) leukemia
SF-268 CNS = test system: SF-268 CNS
K-562 leukemia = test system: K-562 leukemia
OVCAR-4 ovarian = test system: OVCAR-4 ovarian
SK-OV-3 ovarian = test system: SK-OV-3 ovarian
RXF 393 renal = test system: RXF 393 renal
LOX IMVI melanoma = test system: LOX IMVI melanoma
U251 CNS = test system: U251 CNS
EKVX NSCLC = test system: EKVX NSCLC
786-0 renal = test system: 786-0 renal
HOP-62 NSCLC = test system: HOP-62 NSCLC
A549 NSCLC = test system: A549 NSCLC
UACC-62 melanoma = test system: UACC-62 melanoma
SW-620 colon = test system: SW-620 colon
NCI-H460 lung = test system: NCI-H460 lung
RXF-631 renal = test system: RXF-631 renal
ACHN renal = test system: ACHN renal
KM20L2 colon = test system: KM20L2 colon
MALME-3M melanoma = test system: MALME-3M melanoma
SR leukemia = test system: SR leukemia
SK-MEL-5 melanoma = test system: SK-MEL-5 melanoma
DMS 273 small cell lung = test system: DMS 273 small cell lung
HOP-92 NSCLC = test system: HOP-92 NSCLC
SNB-78 CNS = test system: SNB-78 CNS
OVCAR-5 ovarian = test system: OVCAR-5 ovarian
DMS 114 small cell lung = test system: DMS 114 small cell lung

CCOP1(=O)C=C(C)C(=C(Cl)Cl)C(C)=C1 (stereo not drawn)
77.2 µM: TGI (TK-10 renal)
35.7 µM: TGI (XF 498 CNS)
inactive: GI50 (LXFL 529 NSCLC) 5.53 µM | GI50 (HCT-116 colon) 3.33 µM | GI50 (M14 melanoma) 10.7 µM | GI50 (M19-MEL melanoma) 12.9 µM | GI50 (HT29 colon) 6.6 µM | GI50 (NCI-H226 lung) 3.44 µM | GI50 (NCI-H522 lung) 5.57 µM | GI50 (SNB-75 CNS) 30 µM | GI50 (UACC-257 melanoma) 11.5 µM | GI50 (SF-268 CNS) 15.8 µM | GI50 (LOX IMVI melanoma) 22.8 µM | GI50 (UACC-62 melanoma) 9.31 µM | GI50 (RXF-631 renal) 20.4 µM | GI50 (KM20L2 colon) 4.53 µM
29 µM: TGI (COLO 205 colon)
84.1 µM: TGI (HT29 colon)
28.4 µM: TGI (RPMI-8226 leukemia)
49.3 µM: TGI (CAKI-1 renal)
29.1 µM: TGI (OVCAR-4 ovarian)
30.7 µM: TGI (RXF 393 renal) | TGI (SW-620 colon)
31.4 µM: TGI (HCC-2998 colon)
47.3 µM: TGI (MALME-3M melanoma)
7.13 µM and 13.3 µM: TGI (HCT-116 colon)
76.3 µM: TGI (A498 renal)
> 100 µM: TGI (SN12C renal) | TGI (SK-MEL-28 melanoma) | TGI (OVCAR-8 ovarian) | TGI (SNB-75 CNS) | TGI (SF-268 CNS) | TGI (SK-OV-3 ovarian) | TGI (LOX IMVI melanoma) | TGI (786-0 renal) | TGI (NCI-H460 lung)
39.8 µM: TGI (SF-295 CNS)
21.2 µM: TGI (NCI-H226 lung)
40.6 µM: TGI (HOP-62 NSCLC)
5.11 µM: TGI (KM12 colon)
38 µM: TGI (NCI-H23 lung)
42.9 µM: TGI (MOLT-4 leukemia)
6.76 µM and 65.3 µM: TGI (KM20L2 colon)
16.3 µM: TGI (K-562 leukemia)
7.79 µM and 18.9 µM: TGI (NCI-H522 lung)
64.2 µM: TGI (OVCAR-3 ovarian)
90.9 µM: TGI (IGROV1 ovarian)
89 µM: TGI (UACC-257 melanoma)
68.6 µM: TGI (CCRF-CEM leukemia)
46.9 µM: TGI (HOP-18 NSCLC)
24.1 µM: TGI (LXFL 529 NSCLC)
68.1 µM: TGI (ACHN renal)
52.9 µM: TGI (UO-31 renal)
24.6 µM: TGI (M14 melanoma)
10.9 µM: TGI (HL-60(TB) leukemia)
56.2 µM: TGI (SK-MEL-2 melanoma)
78.5 µM: TGI (DLD-1 colon)
36.3 µM: TGI (M19-MEL melanoma)
50.3 µM: TGI (SNB-19 CNS)
66.7 µM: TGI (SF-539 CNS)
38.3 µM: TGI (EKVX NSCLC)
36.9 µM: TGI (HCT-15 colon)
50.9 µM: TGI (U251 CNS)
58.8 µM: TGI (A549 NSCLC)
64.5 µM: TGI (RXF-631 renal)
23.6 µM: TGI (UACC-62 melanoma)

CCOC(=O)c1cccnc1C(OC(C)=O)OC(C)=O
> 100 µM: TGI (SR leukemia) | TGI (LXFL 529 NSCLC) | TGI (HCT-116 colon) | TGI (M14 melanoma) | TGI (SNB-19 CNS) | TGI (SF-539 CNS) | TGI (DLD-1 colon) | TGI (MOLT-4 leukemia) | TGI (SK-MEL-5 melanoma) | TGI (M19-MEL melanoma) | TGI (NCI-H23 lung) | TGI (SK-MEL-2 melanoma) | TGI (DMS 273 small cell lung) | TGI (SF-295 CNS) | TGI (A498 renal) | TGI (HT29 colon) | TGI (HOP-92 NSCLC) | TGI (SN12C renal) | TGI (HOP-18 NSCLC) | TGI (CAKI-1 renal) | TGI (SK-MEL-28 melanoma) | TGI (TK-10 renal) | TGI (SNB-78 CNS) | TGI (UO-31 renal) | TGI (COLO 205 colon) | TGI (OVCAR-3 ovarian) | TGI (NCI-H226 lung) | TGI (KM12 colon) | TGI (HCC-2998 colon) | TGI (NCI-H522 lung) | TGI (IGROV1 ovarian) | TGI (OVCAR-8 ovarian) | TGI (SNB-75 CNS) | TGI (CCRF-CEM leukemia) | TGI (UACC-257 melanoma) | TGI (HCT-15 colon) | TGI (XF 498 CNS) | TGI (HL-60(TB) leukemia) | TGI (SF-268 CNS) | TGI (OVCAR-5 ovarian) | TGI (K-562 leukemia) | TGI (OVCAR-4 ovarian) | TGI (SK-OV-3 ovarian) | TGI (RXF 393 renal) | TGI (LOX IMVI melanoma) | TGI (U251 CNS) | TGI (EKVX NSCLC) | TGI (786-0 renal) | TGI (HOP-62 NSCLC) | TGI (A549 NSCLC) | TGI (DMS 114 small cell lung) | TGI (UACC-62 melanoma) | TGI (SW-620 colon) | TGI (NCI-H460 lung) | TGI (ACHN renal) | TGI (KM20L2 colon) | TGI (MALME-3M melanoma)

CCOC(=O)C(=O)NC12CC3CC(CC(C3)C1)C2
> 100 µM: TGI (LXFL 529 NSCLC) | TGI (HCT-116 colon) | TGI (M14 melanoma) | TGI (SNB-19 CNS) | TGI (SF-539 CNS) | TGI (DLD-1 colon) | TGI (SK-MEL-5 melanoma) | TGI (NCI-H23 lung) | TGI (SK-MEL-2 melanoma) | TGI (DMS 273 small cell lung) | TGI (SF-295 CNS) | TGI (A498 renal) | TGI (RPMI-8226 leukemia) | TGI (HT29 colon) | TGI (HOP-92 NSCLC) | TGI (SN12C renal) | TGI (HOP-18 NSCLC) | TGI (CAKI-1 renal) | TGI (SK-MEL-28 melanoma) | TGI (TK-10 renal) | TGI (UO-31 renal) | TGI (COLO 205 colon) | TGI (NCI-H226 lung) | TGI (KM12 colon) | TGI (HCC-2998 colon) | TGI (NCI-H522 lung) | TGI (IGROV1 ovarian) | TGI (OVCAR-8 ovarian) | TGI (SNB-75 CNS) | TGI (CCRF-CEM leukemia) | TGI (UACC-257 melanoma) | TGI (HCT-15 colon) | TGI (XF 498 CNS) | TGI (HL-60(TB) leukemia) | TGI (SF-268 CNS) | TGI (OVCAR-5 ovarian) | TGI (K-562 leukemia) | TGI (OVCAR-4 ovarian) | TGI (SK-OV-3 ovarian) | TGI (RXF 393 renal) | TGI (LOX IMVI melanoma) | TGI (U251 CNS) | TGI (EKVX NSCLC) | TGI (HOP-62 NSCLC) | TGI (A549 NSCLC) | TGI (DMS 114 small cell lung) | TGI (UACC-62 melanoma) | TGI (SW-620 colon) | TGI (NCI-H460 lung) | TGI (RXF-631 renal) | TGI (ACHN renal) | TGI (KM20L2 colon) | TGI (MALME-3M melanoma)

CCN(CC)CCn1c2ccccc2c(=O)c2c(OC)ccc(OC)c21
97.3 µM: TGI (NCI-H226 lung)
81.5 µM: TGI (RXF 393 renal)
> 100 µM: TGI (SR leukemia) | TGI (LXFL 529 NSCLC) | TGI (HCT-116 colon) | TGI (M14 melanoma) | TGI (SNB-19 CNS) | TGI (SF-539 CNS) | TGI (MOLT-4 leukemia) | TGI (M19-MEL melanoma) | TGI (NCI-H23 lung) | TGI (SK-MEL-2 melanoma) | TGI (DMS 273 small cell lung) | TGI (SF-295 CNS) | TGI (A498 renal) | TGI (RPMI-8226 leukemia) | TGI (HT29 colon) | TGI (HOP-92 NSCLC) | TGI (SN12C renal) | TGI (CAKI-1 renal) | TGI (SNB-78 CNS) | TGI (UO-31 renal) | TGI (COLO 205 colon) | TGI (OVCAR-3 ovarian) | TGI (KM12 colon) | TGI (NCI-H522 lung) | TGI (OVCAR-8 ovarian) | TGI (CCRF-CEM leukemia) | TGI (UACC-257 melanoma) | TGI (HCT-15 colon) | TGI (XF 498 CNS) | TGI (HL-60(TB) leukemia) | TGI (SF-268 CNS) | TGI (OVCAR-5 ovarian) | TGI (K-562 leukemia) | TGI (OVCAR-4 ovarian) | TGI (LOX IMVI melanoma) | TGI (U251 CNS) | TGI (EKVX NSCLC) | TGI (786-0 renal) | TGI (HOP-62 NSCLC) | TGI (A549 NSCLC) | TGI (SW-620 colon) | TGI (NCI-H460 lung) | TGI (ACHN renal) | TGI (KM20L2 colon) | TGI (MALME-3M melanoma)
